Key:
CDK4/D1 = CDK4/D1 (Homo sapiens, UniProt P11802); experiment: ADP Glo Kinase assay CDK4/D1; type: biochemical; conditions: CDK4D1; for remaining activity at 10 µM: compound at 10 μM, read-out: residual activity (%) at 10 μM CDK4D1
In short: (§1)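 ADP Glo luminescence, in-house: CDK4/D1, CDK6/D3 on RB-CTF substrate (Tris pH 7.5, MgCl2, DTT, BSA); CDK9/T1 on RBER-IRStide. Reaction 40 min, 37° C after ATP addition. 10-point 1:3 series, 10 μM to 0.5 nM. IC50 by 4-parameter logistic; Ki derived using ATP Km.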

leukemia cell lines = experiment: Resazurin cell viability assay on leukemia cell lines (72 h growth inhibition, GI50); type: cell-based; conditions: Homo sapiens, MV4-11 cells
In short: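 Cells were exposed to compound, then viability was read by MTT (solid tumour lines) or resazurin reduction (leukaemia lines). Non-linear regression gave the concentration inhibiting 50% of cell growth.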

CDK9/T1 = CDK9/T1 (Homo sapiens, UniProt P50750); experiment: ADP Glo Kinase assay CDK9/T1; type: biochemical; conditions: CDK9T1; read-out: CDK inhibition, Ki (μM) CDK9T1
In short: as §1

CDKs and other kinases [1] = target: T1, CDKs and other kinases (Homo sapiens, UniProt P24941); experiment: Radiometric kinase assay (Eurofins Pharma Discovery or Reaction Biology Corporation Kinase Profiler); type: biochemical; conditions: CDK2A; for Ki: read-out: CDK inhibition, Ki (μM) CDK2A; for remaining activity at 10 µM: compound at 10 μM, read-out: residual activity (%) at 10 μM CDK2A
T1 construct: other: CDK2A; residual activity (%) at 10 μM CDK2A; compound at 10 μM
In short: (§2)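 Other CDKs and further kinases were profiled externally by radiometric assay. In-house ADP Glo assays covered CDK4/D1 and CDK6/D3 (RB-CTF substrate, pH 7.5 Tris buffer with MgCl2, DTT, BSA) and CDK9/T1 (RBER-IRStide substrate), 40 min at 37° C.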

CDKs and other kinases [2] = target: T2, CDKs and other kinases (Homo sapiens, UniProt P50613); experiment: as above; type: biochemical; conditions: CDK7H; for Ki: read-out: CDK inhibition, Ki (μM) CDK7H; for remaining activity at 10 µM: compound at 10 μM, read-out: residual activity (%) at 10 μM CDK7H
T2 construct: other: CDK7H; residual activity (%) at 10 μM CDK7H; compound at 10 μM
In short: as §2

CDKs and other kinases [3] = target: T3, CDKs and other kinases (Homo sapiens, UniProt P06493); experiment: as above; type: biochemical; conditions: CDK1B; for Ki: read-out: CDK inhibition, Ki (μM) CDK1B; for remaining activity at 10 µM: compound at 10 μM, read-out: residual activity (%) at 10 μM CDK1B
T3 construct: other: CDK1B; residual activity (%) at 10 μM CDK1B; compound at 10 μM
In short: as §2

CDK6/D3 = CDK6/D3 (Homo sapiens, UniProt Q00534); experiment: ADP Glo Kinase assay CDK6/D3; type: biochemical; conditions: CDK6D3; for remaining activity at 10 µM: compound at 10 μM, read-out: residual activity (%) at 10 μM CDK6D3
In short: as §1

CDK9/T1, sequence (P50750 whole entry): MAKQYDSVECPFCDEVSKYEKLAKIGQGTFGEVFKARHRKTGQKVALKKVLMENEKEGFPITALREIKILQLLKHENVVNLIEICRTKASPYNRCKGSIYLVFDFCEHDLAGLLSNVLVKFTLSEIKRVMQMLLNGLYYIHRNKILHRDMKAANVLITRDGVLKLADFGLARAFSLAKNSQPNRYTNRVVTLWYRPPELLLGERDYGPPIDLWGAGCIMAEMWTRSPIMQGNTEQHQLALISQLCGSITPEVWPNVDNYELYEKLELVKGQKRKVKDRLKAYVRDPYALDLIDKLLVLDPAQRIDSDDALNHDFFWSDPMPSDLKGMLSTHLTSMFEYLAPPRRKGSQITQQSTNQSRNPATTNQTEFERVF
CDK9/T1, sequence (O60563 whole entry partner): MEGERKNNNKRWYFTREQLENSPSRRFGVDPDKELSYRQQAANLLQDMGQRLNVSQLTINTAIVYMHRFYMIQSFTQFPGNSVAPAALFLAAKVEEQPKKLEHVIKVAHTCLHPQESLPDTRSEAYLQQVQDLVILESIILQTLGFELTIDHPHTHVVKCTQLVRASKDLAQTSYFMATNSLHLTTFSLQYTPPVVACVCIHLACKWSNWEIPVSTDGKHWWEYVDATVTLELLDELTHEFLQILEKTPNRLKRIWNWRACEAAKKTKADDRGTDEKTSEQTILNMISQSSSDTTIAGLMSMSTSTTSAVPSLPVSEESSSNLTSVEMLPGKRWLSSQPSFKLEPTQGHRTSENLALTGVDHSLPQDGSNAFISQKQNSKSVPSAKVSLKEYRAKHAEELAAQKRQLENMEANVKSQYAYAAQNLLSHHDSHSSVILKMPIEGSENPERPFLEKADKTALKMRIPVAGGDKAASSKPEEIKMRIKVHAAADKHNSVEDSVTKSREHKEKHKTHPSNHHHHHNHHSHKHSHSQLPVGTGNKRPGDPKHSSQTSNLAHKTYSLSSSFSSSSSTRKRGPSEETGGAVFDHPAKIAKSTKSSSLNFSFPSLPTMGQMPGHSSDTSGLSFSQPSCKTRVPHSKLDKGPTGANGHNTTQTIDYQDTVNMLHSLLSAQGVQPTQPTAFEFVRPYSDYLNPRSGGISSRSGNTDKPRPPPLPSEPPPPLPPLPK
CDK4/D1, sequence (P11802 whole entry): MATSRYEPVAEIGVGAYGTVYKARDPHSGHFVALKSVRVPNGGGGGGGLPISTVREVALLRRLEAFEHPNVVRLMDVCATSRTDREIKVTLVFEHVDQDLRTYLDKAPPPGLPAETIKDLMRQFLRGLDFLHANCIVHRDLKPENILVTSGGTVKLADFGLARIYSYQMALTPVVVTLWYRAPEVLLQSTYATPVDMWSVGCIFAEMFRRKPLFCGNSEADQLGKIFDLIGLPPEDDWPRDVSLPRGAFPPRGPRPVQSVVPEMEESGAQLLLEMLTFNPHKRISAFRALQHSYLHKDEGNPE
CDK4/D1, sequence (P24385 whole entry partner): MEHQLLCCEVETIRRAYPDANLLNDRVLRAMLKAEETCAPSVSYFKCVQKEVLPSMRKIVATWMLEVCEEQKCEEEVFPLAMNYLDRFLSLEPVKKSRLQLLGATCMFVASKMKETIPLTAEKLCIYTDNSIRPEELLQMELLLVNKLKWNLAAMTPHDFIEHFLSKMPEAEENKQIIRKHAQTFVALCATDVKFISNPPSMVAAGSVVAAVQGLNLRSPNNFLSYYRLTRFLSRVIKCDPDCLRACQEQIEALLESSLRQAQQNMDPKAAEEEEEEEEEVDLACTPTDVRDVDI
CDK6/D3, sequence (Q00534 whole entry): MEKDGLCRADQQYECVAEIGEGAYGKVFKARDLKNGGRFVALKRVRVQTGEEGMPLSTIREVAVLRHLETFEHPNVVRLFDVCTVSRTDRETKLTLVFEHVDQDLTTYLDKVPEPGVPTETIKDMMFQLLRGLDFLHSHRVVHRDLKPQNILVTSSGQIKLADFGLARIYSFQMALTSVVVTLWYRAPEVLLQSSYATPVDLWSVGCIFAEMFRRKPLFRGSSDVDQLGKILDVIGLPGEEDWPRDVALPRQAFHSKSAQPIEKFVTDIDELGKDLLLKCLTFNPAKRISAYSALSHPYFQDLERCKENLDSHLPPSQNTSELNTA
CDK6/D3, sequence (P30281 whole entry partner): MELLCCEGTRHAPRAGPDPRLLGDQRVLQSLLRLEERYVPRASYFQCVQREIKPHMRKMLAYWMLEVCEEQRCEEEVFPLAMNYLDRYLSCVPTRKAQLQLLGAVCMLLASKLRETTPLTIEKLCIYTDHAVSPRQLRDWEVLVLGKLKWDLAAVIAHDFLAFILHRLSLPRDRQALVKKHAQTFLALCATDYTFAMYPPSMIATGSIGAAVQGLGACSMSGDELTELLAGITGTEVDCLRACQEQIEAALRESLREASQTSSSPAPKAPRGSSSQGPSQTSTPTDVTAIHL
T2 sequence (P50613 whole entry): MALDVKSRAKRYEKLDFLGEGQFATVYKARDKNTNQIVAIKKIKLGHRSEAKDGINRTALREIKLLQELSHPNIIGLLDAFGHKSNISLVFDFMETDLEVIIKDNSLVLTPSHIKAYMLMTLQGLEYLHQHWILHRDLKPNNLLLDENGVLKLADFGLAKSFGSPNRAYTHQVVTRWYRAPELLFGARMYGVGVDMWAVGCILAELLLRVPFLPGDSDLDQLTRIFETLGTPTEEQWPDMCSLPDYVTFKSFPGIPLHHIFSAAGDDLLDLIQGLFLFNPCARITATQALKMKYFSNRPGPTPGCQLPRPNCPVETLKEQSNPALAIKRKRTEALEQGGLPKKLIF
T3 sequence (P06493 whole entry): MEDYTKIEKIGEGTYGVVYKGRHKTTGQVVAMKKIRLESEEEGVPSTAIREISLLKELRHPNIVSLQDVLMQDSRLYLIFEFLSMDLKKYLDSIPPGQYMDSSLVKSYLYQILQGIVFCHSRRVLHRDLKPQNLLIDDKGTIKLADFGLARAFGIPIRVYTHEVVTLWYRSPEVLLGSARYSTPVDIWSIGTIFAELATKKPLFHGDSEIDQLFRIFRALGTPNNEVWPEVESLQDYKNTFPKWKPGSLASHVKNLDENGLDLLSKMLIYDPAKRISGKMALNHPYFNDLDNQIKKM

Compound	remaining activity at 10 µM (CDK4/D1)	GI50 (leukemia cell lines)	Ki (CDK9/T1)	Ki (CDKs and other kinases [1])	Ki (CDKs and other kinases [2])	Ki (CDKs and other kinases [3])	remaining activity at 10 µM (CDK6/D3)	remaining activity at 10 µM (CDKs and other kinases [1])	remaining activity at 10 µM (CDKs and other kinases [2])	remaining activity at 10 µM (CDKs and other kinases [3])	Ki (CDK4/D1; read-out: CDK inhibition, Ki (μM) CDK4D1)	Ki (CDK6/D3; read-out: CDK inhibition, Ki (μM) CDK6D3)	residual activity at 10 µM (CDKs and other kinases [2])
Cc1ccc(Nc2ccc3ncc(-c4nc(N[C@H]5CC[C@H](N)CC5)ncc4C)n3c2)cn1 [Compound 69, (1r,4r)-N^1-(5-Methyl-4-(6-((6-methylpyridin-3-yl)amino)imidazo[1,2-a]pyridin-3-yl)pyrimidin-2-yl)cyclohexane-1,4-diamine]	24%	0.199 ± 0.02 µM	0.023 µM	0.61 µM	0.95 µM	2.95 µM	25%	–	–	–	–	–	–
Cc1cnc(N[C@H]2CC[C@H](N)CC2)nc1-c1cnc2ccc(Nc3cnccn3)cn12 [Compound 70, (1r,4r)-N^1-(5-Methyl-4-(6-(pyrazin-2-ylamino)imidazo [1,2-a]pyridin-3-yl)pyrimidin-2-yl)cyclohexane-1,4-diamine]	31%	0.212 ± 0.104 µM	0.62 µM	1.42 µM	3.28 µM	4.32 µM	70%	–	–	–	–	–	–
Cc1cnc(N[C@H]2CC[C@H](N)CC2)nc1-c1cnc2ccc(Nc3cccnn3)cn12 [Compound 71, (1r,4r)-N^1-(5-Methyl-4-(6-(pyridazin-3-ylamino)imidazo [1,2-a]pyridin-3-yl)pyrimidin-2-yl)cyclohexane-1,4-diamine]	35%	0.383 ± 0.119 µM	0.203 µM	2.66 µM	5.19 µM	6.05 µM	66%	–	–	–	–	–	–
Cc1cnc(N[C@H]2CC[C@H](N)CC2)nc1-c1cnc2ccc(NC(=O)c3ccc(F)cc3)cn12 [Compound 72, N-(3-(2-(((1r,4r)-4-Aminocyclohexyl)amino)-5-methylpyrimidin-4-yl)imidazo[1,2-a]pyridin-6-yl)-4-fluorobenzamide]	77%	1.46 ± 0.476 µM	0.194 µM	–	–	–	85%	52%	57%	69%	–	–	–
Cc1cnc(N[C@H]2CC[C@H](N)CC2)nc1-c1cnc2ccc(NC(=O)Cc3ccccc3)cn12 [Compound 73, N-(3-(2-(((1r,4r)-4-Aminocyclohexyl)amino)-5-methylpyrimidin-4-yl)imidazo[1,2-a]pyridin-6-yl)-2-phenylacetamide]	53%	0.752 ± 0.055 µM	0.469 µM	–	–	–	49%	62%	63%	75%	–	–	–
Cc1cnc(N[C@H]2CC[C@H](N)CC2)nc1-c1cnc2ccc(Oc3cccnc3)cn12 [Compound 74, (1r,4r)-N^1-(5-Methyl-4-(6-(pyridin-3-yloxy)imidazo[1,2-a]pyridin-3-yl)pyrimidin-2-yl)cyclohexane-1,4-diamine]	41%	0.349 ± 0.086 µM	0.02 µM	–	–	–	46%	11%	50%	39%	–	–	–
COc1ccc(-c2ccc3ncc(-c4nc(N[C@H]5CC[C@H](N)CC5)ncc4Cl)n3c2)cc1 [Compound 82, (1r,4r)-N^1-(5-Chloro-4-(6-(4-methoxyphenyl)imidazo [1,2-a]pyridin-3-yl)pyrimidin-2-yl)cyclohexane-1,4-diamine]	20%	0.054 ± 0.015 µM	0.018 µM	0.22 µM	0.15 µM	0.82 µM	99%	–	–	–	–	–	–
N[C@H]1CC[C@H](Nc2ncc(Cl)c(-c3cnc4c(-c5ccccc5)cc(C(F)(F)F)cn34)n2)CC1 [Compound 85, (1r,4r)-N^1-(5-Chloro-4-(8-phenyl-6-(trifluoromethyl)imidazo[1,2-a]pyridin-3-yl)pyrimidin-2-yl)cyclohexane-1,4-diamine]	75%	1.32 ± 0.549 µM	0.13 µM	0.77 µM	0.048 µM	7.44 µM	43%	–	–	–	–	–	–
N[C@H]1CC[C@H](Nc2ncc(Cl)c(-c3cnc4c(-c5cccnc5)cc(C(F)(F)F)cn34)n2)CC1 [Compound 86, (1r,4r)-N^1-(5-Chloro-4-(8-(pyridin-3-yl)-6-(trifluoromethyl)imidazo[1,2-a]pyridin-3-yl)pyrimidin-2-yl)cyclohexane-1,4-diamine]	25%	0.086 ± 0.005 µM	0.216 µM	0.25 µM	0.044 µM	2.64 µM	47%	–	–	–	–	–	–
N[C@H]1CC[C@H](Nc2ncc(Cl)c(-c3cnc4ccc(NC(=O)c5ccccc5)cn34)n2)CC1 [Compound 87, N-(3-(2-(((1r,4r)-4-Aminocyclohexyl)amino)-5-chloropyrimidin-4-yl)imidazo[1,2-a]pyridin-6-yl) benzamide]	73%	0.135 ± 0.057 µM	0.073 µM	–	–	–	39%	19%	14%	31%	–	–	–
Cc1cnc(N[C@H]2CC[C@H](NC3CCN(C)CC3)CC2)nc1-c1cnc2ccc(-c3ccccc3)cn12 [Compound 90, (1r,4r)-N^1-(5-Methyl-4-(6-phenylimidazo[1,2-a]pyridin-3-yl)pyrimidin-2-yl)-N4-(1-methylpiperidin-4-yl) cyclohexane-1,4-diamine]	24%	0.229 ± 0.015 µM	0.211 µM	–	–	–	80%	44%	–	57%	–	–	295%

Molecules with a lower GI50 (leukemia cell lines), results first:

remaining activity at 10 µM (CDK4/D1)	GI50 (leukemia cell lines)	Ki (CDK9/T1)	Ki (CDKs and other kinases [1])	Ki (CDKs and other kinases [2])	Ki (CDKs and other kinases [3])	remaining activity at 10 µM (CDK6/D3)	remaining activity at 10 µM (CDKs and other kinases [1])	remaining activity at 10 µM (CDKs and other kinases [2])	remaining activity at 10 µM (CDKs and other kinases [3])	Ki (CDK4/D1; read-out: CDK inhibition, Ki (μM) CDK4D1)	Ki (CDK6/D3; read-out: CDK inhibition, Ki (μM) CDK6D3)	residual activity at 10 µM (CDKs and other kinases [2])	Compound
13%	0.008 ± 0.001 µM	0.004 µM	0.071 µM	0.079 µM	0.27 µM	80%	–	–	–	–	–	–	N[C@H]1CC[C@H](Nc2ncc(Cl)c(-c3cnc4ccc(-c5ccccc5)cn34)n2)CC1 [Compound 79, (1r,4r)-N^1-(5-Chloro-4-(6-phenylimidazo[1,2-a]pyridin-3-yl)pyrimidin-2-yl)cyclohexane-1,4-diamine]
–	0.025 ± 0.011 µM	0.008 µM	0.51 µM	0.21 µM	2.01 µM	–	–	–	–	1.58 µM	1.01 µM	–	COc1ccc(-c2ccc3ncc(-c4nc(N[C@H]5CC[C@H](N)CC5)ncc4Cl)n3c2)cn1 [Compound 81, (1r,4r)-N^1-(5-Chloro-4-(6-(6-methoxypyridin-3-yl)imidazo[1,2-a]pyridin-3-yl)pyrimidin-2-yl)cyclohexane-1,4-diamine]
27%	0.052 ± 0.011 µM	0.065 µM	0.91 µM	0.58 µM	2.56 µM	80%	–	–	–	–	–	–	Cc1noc(C)c1-c1ccc2ncc(-c3nc(N[C@H]4CC[C@H](N)CC4)ncc3Cl)n2c1 [Compound 83, (1r,4r)-N^1-(5-Chloro-4-(6-(3,5-dimethylisoxazol-4-yl)imidazo[1,2-a]pyridin-3-yl)pyrimidin-2-yl)cyclohexane-1,4-diamine]
9%	0.035 ± 0.006 µM	0.033 µM	–	–	–	12%	39%	10%	51%	–	–	–	N[C@H]1CC[C@H](Nc2ncc(Cl)c(-c3cnc4ccc(-c5ccc(N6CCNCC6)nc5)cn34)n2)CC1 [Compound 84, (1r,4r)-N^1-(5-Chloro-4-(6-(6-(piperazin-1-yl)pyridin-3-yl)imidazo[1,2-a]pyridin-3-yl)pyrimidin-2-yl)cyclohexane-1,4-diamine]
17%	0.014 ± 0.007 µM	0.082 µM	–	–	–	41%	7%	19%	5%	–	–	–	Cc1cnc(N[C@H]2CC[C@@H](N)CC2)nc1-c1cnc2ccc(-c3ccccc3)cn12 [Compound 91, (1s,4s)-N^1-(5-Methyl-4-(6-phenylimidazo[1,2-a]pyridin-3-yl)pyrimidin-2-yl)cyclohexane-1,4-diamine]

Reference: patent publication US11111245B2, “Derivatives of N-cycloalkyl/heterocycloalkyl-4-(imidazo[1,2-a]pyridine)pyrimidin-2-amine as therapeutic agents” (Aucentra Therapeutics Pty Ltd, priority 2017, dated 2021)
